pIC50: −log10 of the molar value.

The test deals with T1, Human KDR (Homo sapiens, UniProt P35968).
T1 construct: expressed in transfected cells; host or cells: NIH3T3 cells (mouse fibroblasts)
The test can be described thus: Inhibition of KDR phosphorylation in human KDR-transfected NIH3T3 cells (ELISA). The note with it: for Selection ratio (KDR phosphorylation IC50 / c-fms phosphorylation IC50): class 0-3; for pIC50: human KDR-transfected NIH3T3 cells, VEGF 100 ng/ml, ELISA, read-out: KDR phosphorylation 50% inhibitory concentration (IC50). Format: cell-based. Here is the method: Human KDR-transfected NIH3T3 cells (Sawano A et al., Cell Growth & Differentiation, 7, 213-221 (1996)) were cultured in a DMEM medium containing 10% fetal calf serum (purchased from GIBCO BRL) within a 5% carbon dioxide incubator until 50 to 70% confluent. The harvested cells were seeded into wells, containing the same medium, in a collagen type 1 coat 96-well flat-bottom plate in an amount of 1.5×10^4 per well, and cultured at 37° C. overnight. The medium was replaced with a 0.1% fetal calf serum-containing DMEM medium. The test compound dissolved in dimethyl sulfoxide was added to each well, and the cultivation was continued at 37° C. for additional one hr. A human recombinant vascular endothelial growth factor (hereinafter abbreviated to “VEGF”) was added to a final concentration of 100 ng/ml, followed by stimulation of cells at 37° C. for 2 min. The medium was removed, and the cells were washed with phosphate buffered saline (pH 7.4). A solubilization buffer (50 μl) (20 mM HEPES (pH 7.4), 150 mM NaCl, 0.2% Triton X-100, 10% glycerol, 5 mM sodium orthovanadylate, 5 mM disodium ethylenediaminetetraacetate, and 2 mM Na4P2O7) was then added thereto. The mixture was shaken at 4° C. for 2 hr to prepare a cell extract.
Separately, phosphate buffered saline (50 μl, pH 7.4) containing 5 μg/ml of anti-phospho-tyrosine antibody (PY20; purchased from Transduction Laboratories) was added to a microplate for ELISA (Maxisorp; purchased from NUNC), followed by standing at 4° C. overnight to be immobilized on the wells. After washing of the plate, 300 μl of a blocking solution was added, followed by standing at room temperature for 2 hr to perform blocking. After washing, the whole cell extract was transferred and was allowed to stand at 4° C. overnight. After washing, an anti-KDR antibody (purchased from Santa Cruz Biotechnology) was allowed to react at room temperature for one hr. Further, after washing, a peroxidase-labeled anti-rabbit Ig antibody (purchased from Amersham) was allowed to react at room temperature for one hr. After washing, a chromophoric substrate for peroxidase (purchased from Sumitomo Bakelite Co., Ltd.) was added thereto to initiate a reaction. After a suitable level of color development, a reaction termination solution was added to stop the reaction, and the absorbance at 450 nm was measured with a microplate reader. The KDR phosphorylation activity for each well was determined by presuming the absorbance without the addition of the test compound and with the addition of VEGF to be 100% KDR phosphorylation activity and the absorbance without the addition of the test compound and VEGF to be 0% KDR phosphorylation activity. The concentration of the test compound was varied on several levels, the KDR phosphorylation inhibitory rate was determined for each case, and the concentration of the test compound necessary for inhibiting 50% of KDR phosphorylation (IC50) was calculated.
On the technique in general: In an ELISA, binding on a coated surface is turned into a signal by an enzyme label.

T1 sequence (P35968 20-1356): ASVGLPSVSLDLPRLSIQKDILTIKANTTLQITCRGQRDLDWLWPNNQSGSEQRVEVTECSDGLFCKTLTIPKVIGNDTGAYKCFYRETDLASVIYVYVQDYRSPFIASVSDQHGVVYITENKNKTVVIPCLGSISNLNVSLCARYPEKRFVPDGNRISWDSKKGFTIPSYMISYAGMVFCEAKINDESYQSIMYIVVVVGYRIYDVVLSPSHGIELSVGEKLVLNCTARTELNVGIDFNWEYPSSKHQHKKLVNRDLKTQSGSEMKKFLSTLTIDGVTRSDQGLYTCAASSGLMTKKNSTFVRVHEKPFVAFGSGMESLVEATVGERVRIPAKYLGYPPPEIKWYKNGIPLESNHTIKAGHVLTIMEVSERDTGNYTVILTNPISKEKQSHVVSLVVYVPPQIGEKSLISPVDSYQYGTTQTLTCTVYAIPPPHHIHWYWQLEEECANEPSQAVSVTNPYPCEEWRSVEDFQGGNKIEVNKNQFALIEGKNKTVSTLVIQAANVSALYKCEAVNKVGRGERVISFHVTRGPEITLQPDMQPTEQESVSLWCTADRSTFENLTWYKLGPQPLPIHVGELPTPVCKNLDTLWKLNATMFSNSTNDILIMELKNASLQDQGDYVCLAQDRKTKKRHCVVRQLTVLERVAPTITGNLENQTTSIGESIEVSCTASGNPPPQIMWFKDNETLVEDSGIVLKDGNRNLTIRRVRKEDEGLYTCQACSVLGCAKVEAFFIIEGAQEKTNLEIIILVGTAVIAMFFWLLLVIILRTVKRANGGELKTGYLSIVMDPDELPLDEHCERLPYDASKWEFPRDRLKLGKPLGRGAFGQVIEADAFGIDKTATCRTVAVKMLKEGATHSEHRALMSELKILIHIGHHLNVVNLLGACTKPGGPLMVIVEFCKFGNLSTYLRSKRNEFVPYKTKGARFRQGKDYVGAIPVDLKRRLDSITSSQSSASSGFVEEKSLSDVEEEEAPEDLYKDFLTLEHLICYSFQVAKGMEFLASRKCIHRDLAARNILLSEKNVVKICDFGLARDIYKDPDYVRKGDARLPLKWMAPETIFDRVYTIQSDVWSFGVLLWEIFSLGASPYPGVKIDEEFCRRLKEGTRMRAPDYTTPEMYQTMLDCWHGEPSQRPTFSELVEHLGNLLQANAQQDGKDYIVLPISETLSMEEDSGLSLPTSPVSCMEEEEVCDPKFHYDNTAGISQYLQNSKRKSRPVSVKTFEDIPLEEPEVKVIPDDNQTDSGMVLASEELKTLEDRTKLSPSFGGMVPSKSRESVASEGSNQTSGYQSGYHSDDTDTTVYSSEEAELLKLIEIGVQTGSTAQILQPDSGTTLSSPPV

With `COc1cc2nccc(Oc3ccc(NC(=O)NC(C)c4ccc(F)cc4)cc3)c2cc1OC` (stereo not shown) [Example 1, N-{4-[(6,7-Dimethoxy-4-quinolyl)oxy]phenyl}-N′-[1-(4-fluorophenyl)ethyl]urea], the “Selection ratio (KDR phosphorylation IC50 / c-fms phosphorylation IC50)” value was 0 (KDR phosphorylation 50% inhibitory concentration [μM]/c-fms phosphorylation 50% inhibitory concentration [μM] was less than 5) and the pIC50 is 8.96.
For `COc1cc2nccc(Oc3ccc(NC(=O)NC(C)c4ccc(F)cc4)c(Cl)c3)c2cc1OC` (stereo not shown) [Example 4, N-{2-Chloro-4-[(6,7-dimethoxy-4-quinolyl)oxy]phenyl}-N′-[1-(4-fluorophenyl)ethyl]urea], in that order: 0 (KDR phosphorylation 50% inhibitory concentration [μM]/c-fms phosphorylation 50% inhibitory concentration [μM] was less than 5) and 9.00.
In the case of `COc1cc2nccc(Oc3ccc(NC(=O)N[C@@H](C)c4ccc(F)cc4)c(Cl)c3)c2cc1OC` [Example 5, N-{2-Chloro-4-[(6,7-dimethoxy-4-quinolyl)oxy]phenyl}-N′-[(1S)-1-(4-fluorophenyl)ethyl]urea], the “Selection ratio (KDR phosphorylation IC50 / c-fms phosphorylation IC50)” value was 1 (when the value was 5 or more) and the pIC50 was 7.67.
In the case of `COc1cc2nccc(Oc3ccc(NC(=O)N[C@H](C)c4ccc(F)cc4)c(Cl)c3)c2cc1OC` [Example 6, N-{2-Chloro-4-[(6,7-dimethoxy-4-quinolyl)oxy]phenyl}-N′-[(1R)-1-(4-fluorophenyl)ethyl]urea], the “Selection ratio (KDR phosphorylation IC50 / c-fms phosphorylation IC50)” value was 0 (KDR phosphorylation 50% inhibitory concentration [μM]/c-fms phosphorylation 50% inhibitory concentration [μM] was less than 5) and the pIC50 is 8.74.
`COc1cc2nccc(Oc3cc(C)c(NC(=O)NC(C)c4ccc(F)cc4)cc3C)c2cc1OC` (stereo not shown) [Example 7, N-{4-[(6,7-Dimethoxy-4-quinolyl)oxy]-2,5-dimethylphenyl}-N′-[1-(4-fluorophenyl)ethyl]urea]: the “Selection ratio (KDR phosphorylation IC50 / c-fms phosphorylation IC50)” value is 0 (KDR phosphorylation 50% inhibitory concentration [μM]/c-fms phosphorylation 50% inhibitory concentration [μM] was less than 5) and the pIC50 was 8.51.
Turning to `COc1cc2nccc(Oc3cc(C)c(NC(=O)N[C@@H](C)c4ccc(F)cc4)cc3C)c2cc1OC` [Example 8, N-{4-[(6,7-Dimethoxy-4-quinolyl)oxy]-2,5-dimethylphenyl}-N′-[(1S)-1-(4-fluorophenyl)ethyl]urea], the “Selection ratio (KDR phosphorylation IC50 / c-fms phosphorylation IC50)” value was 2 (when the value was 10 or more) and the pIC50 was 6.41.
In the case of `COc1cc2nccc(Oc3cc(C)c(NC(=O)N[C@H](C)c4ccc(F)cc4)cc3C)c2cc1OC` [Example 9, N-{4-[(6,7-Dimethoxy-4-quinolyl)oxy]-2,5-dimethylphenyl}-N′-[(1R)-1-(4-fluorophenyl)ethyl]urea], the “Selection ratio (KDR phosphorylation IC50 / c-fms phosphorylation IC50)” value is 0 (KDR phosphorylation 50% inhibitory concentration [μM]/c-fms phosphorylation 50% inhibitory concentration [μM] was less than 5) and the pIC50 was 8.57.
As to `COc1cc2nccc(Oc3ccc(NC(=O)NC(C)c4ccc(F)cc4)cc3Cl)c2cc1OC` (stereo not shown) [Example 10, N-{3-Chloro-4-[(6,7-dimethoxy-4-quinolyl)oxy]phenyl}-N′-[1-(4-fluorophenyl)ethyl]urea], the “Selection ratio (KDR phosphorylation IC50 / c-fms phosphorylation IC50)” value was 0 (KDR phosphorylation 50% inhibitory concentration [μM]/c-fms phosphorylation 50% inhibitory concentration [μM] was less than 5) and the pIC50 is 8.52.
On to `COc1cc2nccc(Oc3ccc(NC(=O)N[C@@H](C)c4ccc(F)cc4)cc3Cl)c2cc1OC` [Example 11, N-{3-Chloro-4-[(6,7-dimethoxy-4-quinolyl)oxy]phenyl}-N′-[(1S)-1-(4-fluorophenyl)ethyl]urea], for which the “Selection ratio (KDR phosphorylation IC50 / c-fms phosphorylation IC50)” value is on record as 2 (when the value was 10 or more) and the pIC50 is 6.91.
For `COc1cc2nccc(Oc3ccc(NC(=O)N[C@H](C)c4ccc(F)cc4)cc3Cl)c2cc1OC` [Example 12, N-{3-Chloro-4-[(6,7-dimethoxy-4-quinolyl)oxy]phenyl}-N′-[(1R)-1-(4-fluorophenyl)ethyl]urea], in that order: 0 (KDR phosphorylation 50% inhibitory concentration [μM]/c-fms phosphorylation 50% inhibitory concentration [μM] was less than 5) and 8.55.
Turning to `COc1cc2nccc(Oc3ccc(NC(=O)NC(C)c4ccc(F)cc4)c(C)c3)c2cc1OC` (stereo not shown) [Example 13, N-{4-[(6,7-Dimethoxy-4-quinolyl)oxy]-2-methylphenyl}-N′-[1-(4-fluorophenyl)ethyl]urea], the “Selection ratio (KDR phosphorylation IC50 / c-fms phosphorylation IC50)” value is 0 (KDR phosphorylation 50% inhibitory concentration [μM]/c-fms phosphorylation 50% inhibitory concentration [μM] was less than 5) and the pIC50 was > 9.00.
Regarding `COc1cc2nccc(Oc3ccc(NC(=O)N[C@@H](C)c4ccc(F)cc4)c(C)c3)c2cc1OC` [Example 14, N-{4-[(6,7-Dimethoxy-4-quinolyl)oxy]-2-methylphenyl}-N′-[(1S)-1-(4-fluorophenyl)ethyl]urea], the “Selection ratio (KDR phosphorylation IC50 / c-fms phosphorylation IC50)” value is 1 (when the value was 5 or more) and the pIC50 is 7.16.
For the molecule `COc1cc2nccc(Oc3ccc(NC(=O)N[C@H](C)c4ccc(F)cc4)c(C)c3)c2cc1OC` [Example 15, N-{4-[(6,7-Dimethoxy-4-quinolyl)oxy]-2-methylphenyl}-N′-[(1R)-1-(4-fluorophenyl)ethyl]urea], the “Selection ratio (KDR phosphorylation IC50 / c-fms phosphorylation IC50)” value is 0 (KDR phosphorylation 50% inhibitory concentration [μM]/c-fms phosphorylation 50% inhibitory concentration [μM] was less than 5) and the pIC50 is > 9.00.
Turning to `COc1cc(Oc2ccnc3cc(OC)c(OC)cc23)ccc1NC(=O)NC(C)c1ccc(F)cc1` (stereo not shown) [Example 16, N-{4-[(6,7-Dimethoxy-4-quinolyl)oxy]-2-methoxyphenyl}-N′-[1-(4-fluorophenyl)ethyl]urea], the “Selection ratio (KDR phosphorylation IC50 / c-fms phosphorylation IC50)” value was 0 (KDR phosphorylation 50% inhibitory concentration [μM]/c-fms phosphorylation 50% inhibitory concentration [μM] was less than 5) and the pIC50 was 8.51.
Regarding `COc1cc(Oc2ccnc3cc(OC)c(OC)cc23)ccc1NC(=O)N[C@@H](C)c1ccc(F)cc1` [Example 17, N-{4-[(6,7-Dimethoxy-4-quinolyl)oxy]-2-methoxyphenyl}-N′-[(1S)-1-(4-fluorophenyl)ethyl]urea], the “Selection ratio (KDR phosphorylation IC50 / c-fms phosphorylation IC50)” value is 3 (when the value was 50 or more) and the pIC50 is 6.50. Further, the “selective inhibition of c-fms rather than KDR (in words)” value (in vitro) is recorded as “selectively inhibit c-fms rather than KDR”.
As to `COc1cc(Oc2ccnc3cc(OC)c(OC)cc23)ccc1NC(=O)N[C@H](C)c1ccc(F)cc1` [Example 18, N-{4-[(6,7-Dimethoxy-4-quinolyl)oxy]-2-methoxyphenyl}-N′-[(1R)-1-(4-fluorophenyl)ethyl]urea], the “Selection ratio (KDR phosphorylation IC50 / c-fms phosphorylation IC50)” value is 0 (KDR phosphorylation 50% inhibitory concentration [μM]/c-fms phosphorylation 50% inhibitory concentration [μM] was less than 5) and the pIC50 was 8.74.
For `COc1cc2nccc(Oc3ccc(NC(=O)NC(C)c4ccc(F)cc4)c(C(F)(F)F)c3)c2cc1OC` (stereo not shown) [Example 19, N-[4-[(6,7-Dimethoxy-4-quinolyl)oxy]-2-(trifluoromethyl)phenyl]-N′-[1-(4-fluorophenyl)ethyl]urea], in that order: 0 (KDR phosphorylation 50% inhibitory concentration [μM]/c-fms phosphorylation 50% inhibitory concentration [μM] was less than 5) and 8.82.
As for `COc1cc2nccc(Oc3ccc(NC(=O)N[C@@H](C)c4ccc(F)cc4)c(C(F)(F)F)c3)c2cc1OC` [Example 20, N-[4-[(6,7-Dimethoxy-4-quinolyl)oxy]-2-(trifluoromethyl)phenyl]-N′-[(1S)-1-(4-fluorophenyl)ethyl]urea], the “Selection ratio (KDR phosphorylation IC50 / c-fms phosphorylation IC50)” value is reported as 2 (when the value was 10 or more) and the pIC50 was 6.84.

For the origin of these results see patent publication US7598258B2, “Quinoline derivatives and quinazoline derivatives inhibiting autophosphorylation of macrophage colony stimulating factor receptor” (Kirin Beer Kabushiki Kaisha, priority 2002, dated 2009).
